Laboratory results: US10259844B2, “Endometriosis cell targeting peptide and uses thereof” (Sanford-Burnham Medical Research Institute, priority 2005, dated 2019)
Where no end group is shown, it is not given here. The star is where a group is joined. FITC = O=C1OC2(c3ccc(O)cc3Oc3cc(O)ccc32)c2ccc(NC(=S)*)cc21

Key:
Ishikawa cells = assay: Fluorescence microscopy of overlay on Ishikawa cells; format: cell-based, human
Protocol: Twenty μl of C16-z13 peptide (10 mM in chloroform:methanol 2:1) was mixed with 20 μl phosphatidylcholine (100 mM in chloroform) and 10 μl cholesterol (100 mM in chloroform) in a round bottom flask and evaporated in a rotary evaporator. The sample was dried in a vacuum, dissolved in 500 μl 0.3M citric acid, and frozen and thawed three times, followed by sonication for 10 min. Five hundred μl of 0.2M Na2CO3 and 20 μl of 1 μM Qdot605 streptavidin was added and heated at 60° C. for 1 hour. After adding 1 ml of 20 mM Hepes buffer, pH7.2, the liposome solution was centrifuged at 90,000 rpm for 30 min at 4° C. and the pellet dissolved in PBS.
(§1) Ishikawa cells and A431 cells were grown on glass coverslips in 3.5 cm tissue culture plates. Each phage clone including z13 was added to these cells, incubated at 4° C. for 15 min, washed with cold PBS, and fixed with 1% paraformaldehyde (PFA) in PBS. Phage was detected using rabbit anti-T7 antibody and FITC-conjugated goat anti-rabbit IgG antibody. After washing three times with PBS, cells were fixed with 1% paraformaldehyde in PBS and inspected under a Zeiss Axioplan fluorescence microscope. Ishikawa cells grown on glass coverslips were incubated in medium containing FITC-z13 peptide (1 μg/ml) at 37° C. for 15 min. After washing with PBS, cells were fixed with 1% PFA in PBS, and inspected under the fluorescence microscope. Qdot-encapsulated and C16-z13 peptide coated liposomes were prepared as described above. Ishikawa cells were incubated with these liposomes at 37° C. for 15 min, washed with PBS, fixed with 1% PFA, and inspected under the fluorescence microscope. Qdot605-conjugated peptide, Qdot-cys-z13, or control peptide, Qdot-cys-m2, was added to the culture at 100 nM and left at 37° C. for 15 min.

A431 cells = assay: Fluorescence microscopy of overlay on A431 cells; format: cell-based, human
Protocol: as §1

[1] = system: human endometrial tissues grafted onto the peritoneal wall; assay: In vivo targeting in SCID mouse peritoneal endometriosis model; settings: intraperitoneal injection, 30 min
Protocol: For in vivo targeting, Qdot-cys-z13 or Qdot-cys-m2 (200 nmoles in 200 μl PBS/mouse) was injected into the peritoneum of a SCID mouse that had received intraperitoneal grafts of human endometrial tissues. The abdomen of the mouse was massaged gently to distribute injected material to the entire peritoneal cavity. After 30 min, mice were sacrificed, and the endometrial graft and organs facing the peritoneum were isolated. Tissues were washed in PBS, embedded in O. C. T. compound (Sakura Finetechnical, Tokyo, Japan) and cryosections were made. Sections were fixed with cold methanol, covered with Vecta-shield with DAPI (Vector), and inspected with a fluorescence microscope.
Immunohistochemistry for the progesterone receptor (PR) was performed as follows: Frozen mouse tissue sections prepared from Qdot-cys-z13 injected mice, Qdot-cys-m2 injected mice, and control mice without Qdot injection were fixed in cold methanol for 15 min. Tissue sections were blocked with avidin (5 ng/ml) in PBS at room temperature for 15 min, followed by incubation with 10% goat serum containing biotin (5 μg/ml) for 1 hour. The tissue sections were then applied to immunohistochemistry with a diluted (1:100) anti-PR antibody (DAKO, Carpinteria, Calif.) at 4° C. for 20 hours. After washing with PBS, sections were incubated with biotinylated anti-rabbit IgG antibody (Zymed) and by streptavidin conjugated Qdot565. […]

Substance: FITC-z13: synthetic fluorescence-tagged z13 peptide whose amino-terminus was conjugated ({FITC}-VRRADNRPG)
- binding of fluorescent peptide to Ishikawa cells (Ishikawa cells; 1 μg/ml, 37° C. 15 min): bound
- fluorescence of fluorescent peptide on A431 cells (A431 cells): did not show fluorescence

Substance: Qdot-cys-m2: Qdot605 conjugate of the control peptide cys-m2 CRGMSDTTAL (also: Qdot605 conjugate)
- fluorescence of Qdot-conjugated peptide on Ishikawa cells (Ishikawa cells; 100 nM, 37° C. 15 min): did not show fluorescence signals
- fluorescence at the surface epithelia of endometriosis lesions [1]: did not show fluorescence
- fluorescence in other mouse tissues facing the peritoneum [1]: did not show fluorescence

Substance: VRRADNRPG [z13 peptide]
- binding to Ishikawa cells regardless of modification at the amino terminus (Ishikawa cells; conclusion from FITC, C16 liposome and Qdot conjugates): efficiently binds
